pIC50: −log10 of the molar value.
Key:
[1] = molecular target: T1, 5-hydroxytryptamine receptor 2C (Homo sapiens, UniProt P28335); experiment: Binding affinity against 5-HT2C receptor
T1 sequence (P28335 whole entry): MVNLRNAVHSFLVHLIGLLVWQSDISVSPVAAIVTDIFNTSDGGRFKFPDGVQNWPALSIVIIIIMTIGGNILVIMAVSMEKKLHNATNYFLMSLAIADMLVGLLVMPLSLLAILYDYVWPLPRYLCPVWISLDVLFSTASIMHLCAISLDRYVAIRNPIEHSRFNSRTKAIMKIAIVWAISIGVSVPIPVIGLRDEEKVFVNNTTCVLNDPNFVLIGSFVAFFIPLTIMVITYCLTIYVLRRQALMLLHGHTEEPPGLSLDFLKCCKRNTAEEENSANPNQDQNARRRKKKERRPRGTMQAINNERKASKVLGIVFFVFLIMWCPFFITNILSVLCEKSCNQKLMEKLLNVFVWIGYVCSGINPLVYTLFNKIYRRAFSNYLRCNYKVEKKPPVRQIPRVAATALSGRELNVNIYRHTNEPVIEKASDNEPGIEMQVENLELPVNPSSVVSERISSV

[2] = molecular target: T2, Alpha-1A adrenergic receptor (Homo sapiens, UniProt P35348); experiment: Binding affinity against Alpha-1A adrenergic receptor
T2 sequence (P35348 whole entry): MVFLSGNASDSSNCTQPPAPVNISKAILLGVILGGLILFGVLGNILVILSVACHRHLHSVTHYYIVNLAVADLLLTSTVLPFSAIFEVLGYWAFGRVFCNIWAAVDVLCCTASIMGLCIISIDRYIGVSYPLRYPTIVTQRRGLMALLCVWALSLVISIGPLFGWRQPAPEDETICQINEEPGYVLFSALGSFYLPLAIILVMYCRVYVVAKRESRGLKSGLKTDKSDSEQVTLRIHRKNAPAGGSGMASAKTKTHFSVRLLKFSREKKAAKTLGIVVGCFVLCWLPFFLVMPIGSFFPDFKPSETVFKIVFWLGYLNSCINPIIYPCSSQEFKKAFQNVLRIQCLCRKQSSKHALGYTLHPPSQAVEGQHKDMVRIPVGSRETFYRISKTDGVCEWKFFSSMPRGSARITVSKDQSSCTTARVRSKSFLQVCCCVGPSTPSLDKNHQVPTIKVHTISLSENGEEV

D(4) dopamine receptor = molecular target: T3, D(4) dopamine receptor (Homo sapiens, UniProt P21917); experiment: Binding affinity against Dopamine receptor D4
T3 sequence (P21917 whole entry): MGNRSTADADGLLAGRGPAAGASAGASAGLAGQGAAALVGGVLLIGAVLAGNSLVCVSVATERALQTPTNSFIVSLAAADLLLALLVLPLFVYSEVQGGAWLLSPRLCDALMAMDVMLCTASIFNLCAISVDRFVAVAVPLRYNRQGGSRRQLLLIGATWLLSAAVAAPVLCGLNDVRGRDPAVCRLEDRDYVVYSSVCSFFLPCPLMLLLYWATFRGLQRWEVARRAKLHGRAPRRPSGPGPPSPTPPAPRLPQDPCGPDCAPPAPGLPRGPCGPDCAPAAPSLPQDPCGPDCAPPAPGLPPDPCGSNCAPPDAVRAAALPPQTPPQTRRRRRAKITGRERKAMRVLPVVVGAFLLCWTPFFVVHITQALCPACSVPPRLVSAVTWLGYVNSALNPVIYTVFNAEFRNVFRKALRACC

Histamine H1 receptor = Histamine H1 receptor (Homo sapiens, UniProt P35367); experiment: Binding affinity against Histamine H1 receptor
Chain of Histamine H1 receptor (P35367 whole entry): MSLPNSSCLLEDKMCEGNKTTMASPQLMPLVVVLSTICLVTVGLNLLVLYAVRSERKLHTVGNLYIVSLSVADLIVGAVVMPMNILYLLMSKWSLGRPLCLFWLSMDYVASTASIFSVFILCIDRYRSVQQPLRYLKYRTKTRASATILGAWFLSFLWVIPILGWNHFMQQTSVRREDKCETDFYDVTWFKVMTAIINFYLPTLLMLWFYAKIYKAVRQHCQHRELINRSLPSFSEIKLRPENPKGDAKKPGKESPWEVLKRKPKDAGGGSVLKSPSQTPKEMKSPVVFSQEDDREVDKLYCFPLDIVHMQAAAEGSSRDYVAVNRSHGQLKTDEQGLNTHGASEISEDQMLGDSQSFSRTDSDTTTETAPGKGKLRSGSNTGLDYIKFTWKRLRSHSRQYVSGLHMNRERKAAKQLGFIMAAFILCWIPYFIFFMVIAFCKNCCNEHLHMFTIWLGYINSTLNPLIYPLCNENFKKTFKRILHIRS

Mus musculus [3] = experiment: Activity in mCPP challenge test, disinhibition measurement after sc administration; format: functional
Mus musculus [4] = experiment: Activity in mCPP challenge test, exploration measurements after sc administration; format: functional
[5] = molecular target: T4, 5-hydroxytryptamine receptor 1D (Homo sapiens, UniProt P28221); experiment: Binding affinity against 5-HT1D receptor
Target sequence in this assay (P28221 whole entry): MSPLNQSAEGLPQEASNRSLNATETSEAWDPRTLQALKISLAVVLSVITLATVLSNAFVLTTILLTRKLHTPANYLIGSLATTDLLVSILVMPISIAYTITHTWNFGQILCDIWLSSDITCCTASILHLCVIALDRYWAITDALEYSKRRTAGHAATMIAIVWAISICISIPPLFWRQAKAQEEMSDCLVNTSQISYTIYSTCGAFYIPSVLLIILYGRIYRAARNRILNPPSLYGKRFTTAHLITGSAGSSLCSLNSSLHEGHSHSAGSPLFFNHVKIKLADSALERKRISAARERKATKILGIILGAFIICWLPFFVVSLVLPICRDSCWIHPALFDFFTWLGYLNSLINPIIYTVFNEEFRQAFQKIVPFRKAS

[6] = molecular target: T4, 5-hydroxytryptamine receptor 1D; experiment: Binding affinity against 5-hydroxytryptamine 1D receptor
Target sequence in this assay (P28221 whole entry, looked up): as the sequence (P28221 whole entry) above

[7] = molecular target: T5, 5-hydroxytryptamine receptor 2A (Homo sapiens, UniProt P28223); experiment: Binding affinity against 5-HT2A receptor
T5 sequence (P28223 whole entry): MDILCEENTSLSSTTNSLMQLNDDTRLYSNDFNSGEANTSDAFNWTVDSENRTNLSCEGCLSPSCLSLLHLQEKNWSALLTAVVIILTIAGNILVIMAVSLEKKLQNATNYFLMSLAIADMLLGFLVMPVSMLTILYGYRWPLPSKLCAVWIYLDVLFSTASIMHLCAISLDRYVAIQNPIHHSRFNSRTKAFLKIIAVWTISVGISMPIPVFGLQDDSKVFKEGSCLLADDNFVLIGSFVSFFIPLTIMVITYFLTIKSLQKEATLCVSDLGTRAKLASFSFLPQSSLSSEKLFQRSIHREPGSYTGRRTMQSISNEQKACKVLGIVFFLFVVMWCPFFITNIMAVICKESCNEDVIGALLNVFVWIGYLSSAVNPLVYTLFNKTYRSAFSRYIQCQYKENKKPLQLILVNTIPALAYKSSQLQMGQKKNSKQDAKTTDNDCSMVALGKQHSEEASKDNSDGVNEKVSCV

[8] = molecular target: T6, Alpha-2A adrenergic receptor (Homo sapiens, UniProt P08913); experiment: Binding affinity against Alpha-2A adrenergic receptor
T6 sequence (P08913 whole entry): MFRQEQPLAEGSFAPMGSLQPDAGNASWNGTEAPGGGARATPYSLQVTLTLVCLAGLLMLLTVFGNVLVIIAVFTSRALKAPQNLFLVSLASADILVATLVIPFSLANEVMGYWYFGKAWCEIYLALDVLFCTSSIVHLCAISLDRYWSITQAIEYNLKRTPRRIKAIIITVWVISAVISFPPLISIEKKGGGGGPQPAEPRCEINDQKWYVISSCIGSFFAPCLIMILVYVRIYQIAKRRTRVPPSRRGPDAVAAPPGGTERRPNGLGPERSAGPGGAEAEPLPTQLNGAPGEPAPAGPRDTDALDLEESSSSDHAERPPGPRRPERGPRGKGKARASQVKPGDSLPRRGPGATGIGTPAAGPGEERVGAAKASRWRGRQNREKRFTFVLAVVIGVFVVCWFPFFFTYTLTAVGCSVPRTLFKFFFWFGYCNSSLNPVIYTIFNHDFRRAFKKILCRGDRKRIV

D(2) dopamine receptor = D(2) dopamine receptor (Homo sapiens, UniProt P14416); experiment: Binding affinity against Dopamine receptor D2L
Chain of D(2) dopamine receptor (P14416 whole entry): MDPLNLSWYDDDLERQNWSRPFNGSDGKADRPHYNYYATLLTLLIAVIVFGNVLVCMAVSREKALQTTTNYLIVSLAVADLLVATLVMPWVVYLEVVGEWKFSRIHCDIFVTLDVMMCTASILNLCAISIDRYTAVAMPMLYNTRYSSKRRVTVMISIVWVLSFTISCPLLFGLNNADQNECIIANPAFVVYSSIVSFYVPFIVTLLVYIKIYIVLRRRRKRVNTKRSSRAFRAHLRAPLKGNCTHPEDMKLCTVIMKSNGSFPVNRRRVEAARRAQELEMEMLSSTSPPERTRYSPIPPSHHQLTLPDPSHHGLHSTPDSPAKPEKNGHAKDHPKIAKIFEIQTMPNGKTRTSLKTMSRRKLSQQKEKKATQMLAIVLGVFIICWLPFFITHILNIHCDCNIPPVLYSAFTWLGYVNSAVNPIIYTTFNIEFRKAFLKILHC

D(3) dopamine receptor = D(3) dopamine receptor (Homo sapiens, UniProt P35462); experiment: Binding affinity against Dopamine receptor D3
Chain of D(3) dopamine receptor (P35462 whole entry): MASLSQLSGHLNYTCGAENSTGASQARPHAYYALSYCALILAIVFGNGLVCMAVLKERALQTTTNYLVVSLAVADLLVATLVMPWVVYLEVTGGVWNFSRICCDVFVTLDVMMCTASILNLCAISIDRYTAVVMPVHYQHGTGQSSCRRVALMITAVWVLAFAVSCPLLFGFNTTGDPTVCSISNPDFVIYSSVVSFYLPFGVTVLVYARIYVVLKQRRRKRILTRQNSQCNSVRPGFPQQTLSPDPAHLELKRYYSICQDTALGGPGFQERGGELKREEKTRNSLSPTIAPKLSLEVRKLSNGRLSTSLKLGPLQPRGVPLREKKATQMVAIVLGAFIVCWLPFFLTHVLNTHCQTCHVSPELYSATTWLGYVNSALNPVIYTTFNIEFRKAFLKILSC

[9] = molecular target: T7, 5-hydroxytryptamine receptor 1A (Homo sapiens, UniProt P08908); experiment: Binding affinity against 5-HT1A receptor
T7 sequence (P08908 whole entry): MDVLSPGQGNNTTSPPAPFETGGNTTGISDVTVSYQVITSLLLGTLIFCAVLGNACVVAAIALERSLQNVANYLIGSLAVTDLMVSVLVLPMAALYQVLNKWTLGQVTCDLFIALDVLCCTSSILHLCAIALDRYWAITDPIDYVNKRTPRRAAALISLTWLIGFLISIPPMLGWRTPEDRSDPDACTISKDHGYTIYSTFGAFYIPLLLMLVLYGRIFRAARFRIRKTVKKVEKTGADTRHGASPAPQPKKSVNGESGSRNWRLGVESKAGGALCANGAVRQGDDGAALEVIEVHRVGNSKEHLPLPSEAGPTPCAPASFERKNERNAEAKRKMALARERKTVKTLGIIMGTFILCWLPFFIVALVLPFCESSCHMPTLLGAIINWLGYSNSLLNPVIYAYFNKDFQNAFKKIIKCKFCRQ

[10] = molecular target: T5, 5-hydroxytryptamine receptor 2A; experiment: Binding affinity against 5-hydroxytryptamine 2A receptor

| pIC50 [1] | pIC50 [2] | pIC50 (D(4) dopamine receptor) | pIC50 (Histamine H1 receptor) | pIC50 [10] | SMILES | ED50 (Mus musculus [3]) [mg/kg] | ED50 (Mus musculus [4]) [mg/kg] | pIC50 [5] | pIC50 [6] | pIC50 [7] | pIC50 [8] | pIC50 (D(2) dopamine receptor) | pIC50 (D(3) dopamine receptor) | pIC50 [9] |
| --- | --- | --- | --- | --- | --- | --- | --- | --- | --- | --- | --- | --- | --- | --- |
| 8.98 | 7.84 | 8.58 | 8.63 | – | CN(C)CC1CC2c3ccccc3Cc3ccc(Cl)cc3N2O1 (stereo not given) | 0.16 | > 2.5 | – | – | – | – | – | – | – |
| 7.90 | 6.40 | 6.60 | < 6.00 | 6.41 | CN(C)CC1CC2c3ccccc3Cc3ccncc3N2O1 (stereo not given) | 0.16 | 2.5 | – | – | – | < 6.00 | 5.72 | 5.78 | – |
| – | – | – | – | – | CN(C)CC1CC2c3ccccc3Cc3ccccc3N2O1 (stereo not given) | 0.01 | > 2.5 | – | – | – | – | – | – | – |

| SMILES | pIC50 [1] | pIC50 [2] | pIC50 (D(4) dopamine receptor) | pIC50 (Histamine H1 receptor) | pIC50 [10] | ED50 (Mus musculus [3]) [mg/kg] | ED50 (Mus musculus [4]) [mg/kg] | pIC50 [5] | pIC50 [6] | pIC50 [7] | pIC50 [8] | pIC50 (D(2) dopamine receptor) | pIC50 (D(3) dopamine receptor) | pIC50 [9] |
| --- | --- | --- | --- | --- | --- | --- | --- | --- | --- | --- | --- | --- | --- | --- |
| CN(C)CC1CC2c3cccnc3Cc3ccccc3N2O1 (stereo not given) | – | < 6.00 | < 6.00 | 7.78 | – | < 2.5 | < 2.5 | < 6.00 | 6.04 | < 6.00 | < 6.00 | < 6.00 | < 6.00 | < 6.00 |
